Measured values published in patent EP0336800A1, “Methods and kit for determining sulfamethazine in animal fluids or feed” (IDETEK, INC., priority 1988, dated 1989).
Several values for one entry are separate records, joined by “and”; a condition that tells them apart may be missing. Equal entries are not always repeated.

System: anti-sulfamethazine antibody
Assay: Competitive direct enzyme immunoassay (EIA) with immobilized anti-sulfamethazine antibody and sulfamethazine-HRP conjugate
Type: binding, New Zealand female white rabbits
Conditions: for % Cross-Reactivity: (nM of sulfamethazine for 50% binding/nM sulfa analogue for 50% binding) x 100; for % Binding Mean: quadruplicate on 14 different days
Protocol: Each well of the microtiter plate was filled with 200 µL solution of r-Protein A (2 µg/mL in l0 mM PBS, pH 7.2). These strips were sealed and incubated at 4°C for 5 hours. The r-Protein A solution was aspirated and the wells were washed 5 times with saline-Tween (0.9 percent NaCl containing 0.05 percent Tween-20). Each well was then incubated with 300µL solution of 0.l percent casein in 20 mM PBS, pH 7.2, at 37°C for 30 min and washed as described above. Each well was then filled with 200µL of antibody solution (l2.5 µg/mL in 50 mM carbonate-bicarbonate buffer, pH 9.6) and incubated at 4°C overnight (l5-20 hours). The solution was aspirated and the wells air-dried at room temperature for 2-3 hours. The antibody immobilized microtiter wells thus prepared were stored in ziplock bags at 4°C.
The enzyme conjugate (sulfamethazine-HRP) was appropriately diluted (generally l:l000) with 20 mM PBS, pH 7.2, containing 0.0l percent casein (w/v) and mixed with standards or samples in l0:l ratio. The mixture was transferred to wells ([…]) and incubated at 37°C for l hour. The wells were washed five times with 20 mM PBS, pH 7.2, containing 0.05 percent Tween-20 (v/v). Each well was then filled with l00 µL of ABTS substrate solution (combine l:l (v/v) lmM ABTS, 0.lM citrate, pH 4.0, and 0.0l% thimerosal with 0.0l% H₂O₂, and 0.0l% thimerosal) and incubated at 37°C for about 20 min for color (bluish-green) development. The color development was stopped with l00 µL of l percent SDS solution (w/v). Absorbance of the color was monitored at 405 nm in an EIA plate reader. Percent binding was calculated from the absorbance contained in the absence (B′) and presence (B) of sulfamethazine in standards/samples as follows: % binding = (B/B′) x l00.
A standard curve was prepared by plotting log sulfamethazine concentration vs. percent binding. The content of sulfamethazine in an unknown sample was determined from the standard curve.

Compound	% Cross-Reactivity	other results
Cc1ccnc(NS(=O)(=O)c2ccc(N)cc2)n1 [Sulfamerazine]	12% and 12.10%	–
NS(=O)(=O)c1ccc(C(=O)O)cc1 [4-Carboxybenzenesulfonamide]	0.0%	–
Cc1nnc(NS(=O)(=O)c2ccc(N)cc2)s1 [Sulfamethizole]	0.0%	–
Nc1ccc(S(=O)(=O)Nc2ccccn2)cc1 [Sulfapyridine]	0.0%	–
Nc1ccc(S(=O)(=O)Nc2ncccn2)cc1 [Sulfadiazine]	0.0%	–
Cc1cc(NS(=O)(=O)c2ccc(N)cc2)nc(C)n1 [Sulfisomidine]	0.0%	–
Cc1noc(NS(=O)(=O)c2ccc(N)cc2)c1C [Sulfisoxazole]	0.0%	–
Nc1ccc(S(=O)(=O)[O-])cc1.O.[Na+] [Sulfanilic acid, sodium salt hydrate]	0.0%	–
Nc1ccc(S(=O)(=O)F)cc1 [Sulfanilyl fluoride]	0.0%	–
Nc1ccc(S(N)(=O)=O)cc1 [Sulfanilamide]	0.0%	–
NS(N)(=O)=O [Sulfamide]	0.0%	–
CC(=O)NS(=O)(=O)c1ccc(N)cc1 [Sulfacetamide]	0.66%	–
Cc1cc(C(C)(C)C)c(O)c(C(C)(C)C)c1 [2,6-Di-tert.-butyl-4-methyl phenol]	0.0%	–
[H]/N=C(/N)NS(=O)(=O)c1ccc(N)cc1 [Sulfaguanidine]	0.0%	–
Nc1ccc(S(=O)(=O)Nc2ccc(Cl)nn2)cc1 [Sulfachloropyridazine]	0.0%	–
Cc1cc(C)nc(NS(=O)(=O)c2ccc(N)cc2)n1 [Sulfamethazine]	100.0%	competition with sulfamethazine-HRP conjugate for antibody binding (competitive EIA at 0 µg/mL and 0.l µg/mL of sulfamethazine): competed effectively; 50% inhibition in binding (mid-region of the EIA standard curve, standards in swine plasma): around 0.l; % Binding Mean (sulfamethazine standard 0.016 µg/mL): 83.1%; % Binding Mean (sulfamethazine standard 0.031 µg/mL): 76.0%; % Binding Mean (sulfamethazine standard 0.063 µg/mL): 64.2%; % Binding Mean (sulfamethazine standard 0.125 µg/mL): 48.4%; % Binding Mean (sulfamethazine standard 0.25 µg/mL): 31.4%; % Binding Mean (sulfamethazine standard 0.5 µg/mL): 18.3%; % Binding Mean (sulfamethazine standard 1.0 µg/mL): 10.5%
Cc1c[nH]c(=O)[nH]c1=O [Thymine]	0.0%	–
Cc1cc(NS(=O)(=O)c2ccc(N)cc2)no1 [Sulfamethoxazole]	0.0%	–
COc1cnc(NS(=O)(=O)c2ccc(N)cc2)nc1 [5-Methoxysulfadiazine]	0.34%	–
Nc1ccc(S(=O)(=O)Nc2ccc3cn[nH]c3c2)cc1 [N′-(6-Indazolyl) sulfanilamine]	0.0%	–
COc1ccc(NS(=O)(=O)c2ccc(N)cc2)nn1 [Sulfamethoxypyridazine]	0.0%	–
Nc1ccc(S(=O)(=O)Nc2nccs2)cc1 [Sulfathiazole]	0.07%	–
COc1cc(NS(=O)(=O)c2ccc(N)cc2)nc(OC)n1 [Sulfadimethoxine]	0.06%	–
CC(=O)Nc1ccc(S(=O)(=O)Nc2ccc([N+](=O)[O-])cc2)cc1 [Sulfanitran]	0.0%	–
Nc1ccc(S(=O)(=O)NC(=O)c2ccccc2)cc1 [Sulfabenzamide]	0.0%	–
Cc1nc(NS(=O)(=O)c2ccc(N)cc2)oc1C [N′-(4,5-Dimethyloxazol-2-yl) sulfanilamide]	0.0%	–
Nc1ccc(S(=O)(=O)Nc2cnc3ccccc3n2)cc1 [Sulfaquinoxaline]	0.0%	–
Sulfasazine	0.0%	–
Cc1cc(C)nc(N)n1 [2-Amino-4,6-Dimethylpyrimidine]	0.07%	–
